Results on one compound are retold here after patent US10786575B2, “Self-emulsifying composition of Ω3 fatty acid” (priority 2015, dated 2020).

Structures are written as SMILES. Where two headings read alike, the source gives them in different places.

Data set [1] is described as follows: Test Example 5: pharmacokinetics in beagles (plasma EPA, LC/MS/MS). Also noted: species or system male beagles. The following applies: dog, in vivo, po, 600 mg. As for the experimental part:
The produced compositions or capsules (Examples 1, 3 and 5) were each orally administered to 6 male beagles (at the age of 2 to 6 years with the body weight of 8 to 13 kg, 3 Marshall beagles and 3 Nosan beagles) under fasting conditions, and blood EPA concentration was evaluated. […] The control group was administered with the EPA-E stock solution encapsulated in a capsule.

For data set [2] the following is noted: human, in vivo, po, 3600 mg.
Procedure: (§1) The capsule having the self-emulsifying composition of the present invention containing 80% by weight of EPA-E as its content was orally administered to human (12 cases, healthy adult males of 20 to 40 years old with a body weight of 55.0 to 77.0 kg and a BMI of 18.5 or more but less than 25.0) under fasting conditions to evaluate the change of blood EPA concentration. The self-emulsifying composition in an amount corresponding to 1800 mg of EPA-E was orally administered in single dose to each human who had been fasted since 10 hours or more before the administration by using 200 mL of water in the morning under fasting. The blood was collected 0.5, 1, 1.5, 2, 3, 4, 5, 6, 7, 8, 9, 10, 12, 15, 18, 24, 48 and 72 hours after the administration. Immediately after the collection, the blood was cooled on ice, and centrifuged at 2000×g at 4° C. for 10 minutes to separately collect the plasma. After having stored the resulting plasma at a temperature not higher than −20° C. in frozen state, concentration of the EPA in the plasma was measured by LC/MS/MS (method in which a sample is isolated by liquid chromatography, then subjected to mass spectrometry to conduct separation and measurement thereon).
(§2) The capsule having the self-emulsifying composition of the present invention containing 80% by weight of EPA-E as its content was also orally administered to human immediately after meals, and the measurement was conducted by repeating the procedure as described above.
(§3) For the control group, the EPA-E stock solution (high purity EPA-E (at least 96.5% by weight) containing no emulsifier or the like and used with the same EPA-E amount as that of the self-emulsifying composition of the present invention; the same applying hereafter) filled in the capsule was orally administered to human (12 cases, healthy adult males of 20 to 40 years old with a body weight of 55.0 to 77.0 kg and a BMI of 18.5 or more but less than 25.0) under fasting conditions (fasting since at least 10 hours before the administration), and the measurement was conducted by repeating the procedure as described above.
This test was conducted on 6 humans. […] In the calculation of each parameter, correction was made by subtracting the blood EPA concentration before the administration from the measured blood concentration.
For data set [3] the following is noted: human, in vivo, po, 1800 mg.
Procedure: as §1, §2, §3
In the calculation of each parameter, correction was made by subtracting the blood EPA concentration before the administration from the measured blood concentration.

What is called Cmax is the highest concentration seen after dosing. The Tmax is the time from dosing to the highest level. One may read the t½ as the time needed for the level to fall by half in the phase considered. A low value points to fast loss. In data set [1], `CC/C=C\C/C=C\C/C=C\C/C=C\C/C=C\CCCC(=O)OCC` [Comp. Ex. 5, Ethyl eicosapentaenoate] registered an AUC0-1 of 11300 ng·h/mL, an AUC0-26 of 76600 ng·h/mL and a Cmax of 18400 ng/mL. In data set [2], the AUC0-72 hr was determined as 113700 ng·h/mL, the Cmax came to 3600 ng/mL, the Tmax is 21.8 h and the t½ came to 22.8 h. Moreover, in data set [3], the AUC0-72 hr was found to be 113100 ng·h/mL, the peak concentration (Cmax) was 4600 ng/mL, the time to peak (Tmax) worked out at 10.8 h and the t½ amounted to 71.7 h.
